Ends that are not written are not given here.

This note sets out measurements from patent US20050152911A1, “Norovirus monoclonal antibodies and peptides” (priority 2003, published 2005).

Data set [1] concerns rSMV binding to CaCo-2 cells. The note with it: serial dilutions of peptide, free and linked to carrier; Example 4 written in present tense.
The subject of data set [2] is rNV binding to CaCo-2 cells. Conditions: serial dilutions of peptide, free and linked to carrier; Example 4 written in present tense.

On to WLPAPIDKL [peptide 1800, WLPAPIDKL], for which the “reduction of binding of rSMV to CaCo-2 cells” value in data set [1] is reported as “reduces binding”.

For the sequence WTRGQHQL [compound 1732, WTRGQHQL], in data set [2], the “reduction of binding of rNV to CaCo-2 cells” value is given as “reduce the binding”.

As to WTRGGHGL [compound 1731, WTRGGHGL], in data set [2], the “reduction of binding of rNV to CaCo-2 cells” value was “reduce the binding”. On the same count and under the same terms, next, WTRGSHNL [peptide 1730, WTRGSHNL]: “reduce the binding”.
